The test system of one assay is H2405 cells. The assay can be described thus: H2405 Cell Proliferation Assay (1). Type of assay: cell-based. The settings on record: Homo sapiens, NCI-H2405. The method, boiled down: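 Viability was read by resazurin reduction (ex 540 nm, em 600 nm; 5-6 h with 40 μL of 440 μM stock) after 67-72 h compound exposure at 37 °C.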
In assay [1] the target is A-Raf kinase (SEQ. ID No: 1) (Homo sapiens (Human), UniProt P10398, Y301D/Y302D). Nature of the assay: Biochemical Assay for A-Raf (1). Particulars: Table J, biochemical assay (1); read-out: ARAF (1). The method, boiled down:
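A-Raf Y301D/Y302D at 5.55 nM phosphorylates 30.1 nM MEK with 1 mM ATP in pH 7.5 Tris buffer, 1% DMSO. Activity was read continuously as NADH oxidation at 340 nm in a pyruvate kinase/lactate dehydrogenase coupled system for 6 h at 30 °C. Rates from 4–5 h were converted to percent inhibition, and IC50 came from a four-parameter fit.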

In assay [2] the target is B-Raf kinase (SEQ. ID NO: 2) (Homo sapiens (Human), UniProt P15056). Nature of the assay: Biochemical Assay for B-Raf (1). The settings on record: Table J, biochemical assay (1); read-out: BRAF (1). The method, boiled down:
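Continuous PK/LDH-coupled NADH oxidation assay, A340 read for 6 h at 30° C., with 0.13 nM B-Raf, 30.1 nM MEK substrate and 1 mM ATP in Tris pH 7.5, MgCl2, DTT, detergents, 1% DMSO. Rate taken from 4–5 h window; percent inhibition vs no-compound and known-inhibitor controls; four-parameter fit gives IC50.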

The test system of a further assay is WM3928 cells. Nature of the assay: WM3928 Cell Proliferation Assay (1). Type of assay: cell-based. The method, boiled down: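 IC50 was derived from resazurin fluorescence (ex 540, em 600 nm) after a 6–7 h dye incubation. Before that, cells had 67–72 h of compound exposure at 37 °C, 5% CO2.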

The structures appear in SMILES notation.

Chain of A-Raf kinase (SEQ. ID No: 1) (P10398 other isoform, or with tags, fused parts or gaps Y301D (already in the parent)/Y302D (already in the parent)): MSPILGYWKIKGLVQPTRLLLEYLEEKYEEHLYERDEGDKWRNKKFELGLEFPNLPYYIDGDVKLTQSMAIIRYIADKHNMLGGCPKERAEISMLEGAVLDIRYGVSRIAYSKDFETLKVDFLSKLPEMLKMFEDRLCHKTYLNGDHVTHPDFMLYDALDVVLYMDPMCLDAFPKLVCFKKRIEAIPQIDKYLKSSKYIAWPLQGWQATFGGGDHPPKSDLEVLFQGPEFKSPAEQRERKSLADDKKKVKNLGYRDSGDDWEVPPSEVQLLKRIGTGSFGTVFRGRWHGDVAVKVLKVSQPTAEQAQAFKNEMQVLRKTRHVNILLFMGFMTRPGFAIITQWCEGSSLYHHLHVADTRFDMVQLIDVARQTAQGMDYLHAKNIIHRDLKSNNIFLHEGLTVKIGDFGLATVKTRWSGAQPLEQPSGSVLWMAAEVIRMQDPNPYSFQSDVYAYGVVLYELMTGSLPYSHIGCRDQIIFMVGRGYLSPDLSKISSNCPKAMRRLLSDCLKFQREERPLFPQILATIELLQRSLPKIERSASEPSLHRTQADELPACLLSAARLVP
Chain of B-Raf kinase (SEQ. ID NO: 2) (P15056 416-766): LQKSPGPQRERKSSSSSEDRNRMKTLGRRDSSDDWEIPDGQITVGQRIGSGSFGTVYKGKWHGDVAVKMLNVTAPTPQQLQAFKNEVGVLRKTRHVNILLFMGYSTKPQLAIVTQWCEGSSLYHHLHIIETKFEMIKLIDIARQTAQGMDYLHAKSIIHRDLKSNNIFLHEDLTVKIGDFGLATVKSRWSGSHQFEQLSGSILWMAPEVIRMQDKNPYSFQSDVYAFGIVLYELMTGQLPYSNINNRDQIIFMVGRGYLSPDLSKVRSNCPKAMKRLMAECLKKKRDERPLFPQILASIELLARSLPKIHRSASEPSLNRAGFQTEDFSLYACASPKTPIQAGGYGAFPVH

For `COC(=O)Nc1cc(-c2cncc(-c3cc(NC(=O)c4ccnc(C(C)(C)F)c4)ccc3C)c2)ncn1` [Example 425], the IC50 was ≤ 100 nM in the assay on H2405 cells, 1000 to 10000 nM in assay [1], ≤ 100 nM in assay [2] and ≤ 100 nM in the assay with WM3928 cells.

For `COC(=O)Nc1cc(-c2cccc(-c3cc(NC(=O)Cn4cc(C(C)C)nn4)cnc3C)c2)ccn1` [Example 415], the IC50 is 1000 to 10000 nM in assay [1], 500 to 1000 nM in assay [2] and 1000 to 10000 nM in the assay with WM3928 cells.

Take `Cc1ncc(NC(=O)c2ccnc(C(C)(C)C#N)c2)cc1-c1cncc(-c2cc(NC(=O)C3CC3)ncn2)c1` [Example 410]: the IC50 was 100 to 500 nM with H2405 cells, 1000 to 10000 nM in assay [1], ≤ 100 nM in assay [2] and ≤ 100 nM in the assay on WM3928 cells.

For `Cc1cc(F)c(NC(=O)c2ccnc(C(C)(C)F)c2)cc1-c1cncc(-c2cc(NC(=O)C3CC3)ncn2)c1` [Example 423], the IC50 is 1000 to 10000 nM in assay [1], ≤ 100 nM in assay [2] and ≤ 100 nM in the assay with WM3928 cells.

In the case of `Cc1cc(F)c(NC(=O)c2ccnc(C(C)(C)C#N)c2)cc1-c1cncc(-c2cc(NC(=O)C3CC3)ncn2)c1` [Example 424], the IC50 was 500 to 1000 nM in assay [1], ≤ 100 nM in assay [2] and ≤ 100 nM with WM3928 cells.

Take `CNC(=O)c1cc(-c2cncc(-c3cc(NC(=O)c4ccnc(C(C)(C)F)c4)c(F)cc3C)c2)ccn1` [Example 408]: the IC50 was in the range of 100 to 500 nM with H2405 cells, 1000 to 10000 nM in assay [1], 100 to 500 nM in assay [2] and 100 to 500 nM with WM3928 cells.

Turning to `Cc1ncc(NC(=O)c2ccnc(C(C)(C)F)c2)cc1-c1cncc(-c2cc(NC(=O)C3CC3)ncn2)c1` [Example 406], the IC50 in the assay on H2405 cells was ≤ 100 nM; in assay [1], 500 to 1000 nM; in assay [2], ≤ 100 nM; in the assay with WM3928 cells, ≤ 100 nM.

Regarding `Cc1ccc(NC(=O)c2ccnc(C(C)(C)F)c2)cc1-c1cncc(-c2cc(N)ncn2)c1` [Example 411], the IC50 with H2405 cells is 100 to 500 nM; in assay [1], 1000 to 10000 nM; in assay [2], ≤ 100 nM; in the assay with WM3928 cells, ≤ 100 nM.

`Cc1ncc(NC(=O)c2ccnc(C(C)(C)F)c2)cc1-c1cncc(-c2ccnc(NC(=O)C3CC3)c2)c1` [Example 433]: the figures for the IC50 (in assay [1]; in assay [2]; in the assay on WM3928 cells) were 1000 to 10000 nM, ≤ 100 nM and ≤ 100 nM, respectively.

As to `Cc1ccc(NC(=O)c2ccnc(C(F)F)c2)cc1-c1cncc(-c2cc(NC(=O)C3CC3)ncn2)c1` [Example 429], the IC50 is ≤ 100 nM with H2405 cells, 100 to 500 nM in assay [1], ≤ 100 nM in assay [2] and ≤ 100 nM in the assay with WM3928 cells.

As to `Cc1ccc(NC(=O)c2cc(C3CC3)on2)cc1-c1cncc(-c2cc(NC(=O)C3CC3)ncn2)c1` [Example 421], the IC50 was ≤ 100 nM with H2405 cells, 1000 to 10000 nM in assay [1], ≤ 100 nM in assay [2] and ≤ 100 nM in the assay on WM3928 cells.

In the case of `Cc1ccc(NC(=O)c2ccnc(C(C)(F)F)c2)cc1-c1cncc(-c2cc(NC(=O)C3CC3)ncn2)c1` [Example 419], the IC50 with H2405 cells was ≤ 100 nM; in assay [1], 500 to 1000 nM; in assay [2], ≤ 100 nM; in the assay on WM3928 cells it was ≤ 100 nM.

For the molecule `COC(=O)Nc1cc(-c2cncc(-c3cc(NC(=O)c4ccnc(C5(C#N)CC5)c4)ccc3C)c2)ncn1` [Example 405], the IC50 in the assay with H2405 cells is ≤ 100 nM; in assay [1] it was 1000 to 10000 nM; in assay [2], ≤ 100 nM; with WM3928 cells, ≤ 100 nM.

Regarding `COc1ccc(NC(=O)c2ccnc(C(C)(C)C#N)c2)cc1-c1cccc(-c2cc(NC(=O)C3CC3)ncn2)c1` [Example 438], the IC50 in the assay with H2405 cells was 100 to 500 nM; in assay [1], 1000 to 10000 nM; in assay [2] it was ≤ 100 nM; with WM3928 cells it was ≤ 100 nM.

`COC(=O)Nc1cc(-c2cc(-c3cc(NC(=O)c4ccnc(C(C)(C)F)c4)ccc3C)nc(C)n2)ccn1` [Example 416]: the IC50 is 100 to 500 nM in the assay on H2405 cells, 1000 to 10000 nM in assay [1], ≤ 100 nM in assay [2] and ≤ 100 nM in the assay on WM3928 cells.

In the case of `CNC(=O)c1cc(-c2nccc(-c3cc(NC(=O)c4ccnc(C(C)(C)F)c4)c(F)cc3C)n2)ccn1` [Example 427], the IC50 with H2405 cells is 100 to 500 nM; in assay [1], 1000 to 10000 nM; in assay [2] it was 100 to 500 nM; in the assay with WM3928 cells, ≤ 100 nM.

On to `Cc1ccc(NC(=O)c2ccnc(C(C)(C)C#N)c2)cc1-c1cncc(-c2cc(N)ncn2)c1` [Example 422], for which the IC50 in the assay on H2405 cells is 100 to 500 nM; in assay [1], 1000 to 10000 nM; in assay [2], 100 to 500 nM; with WM3928 cells, 100 to 500 nM.

Consider `Cc1cc(F)c(NC(=O)c2ccnc(C(C)(C)C#N)c2)cc1-c1cncc(-c2ccnc(NC(=O)C3CC3)c2)c1` [Example 418], for which the IC50 in the assay with H2405 cells was ≤ 100 nM; in assay [1], 500 to 1000 nM; in assay [2], ≤ 100 nM; in the assay on WM3928 cells, ≤ 100 nM.

In the case of `CNC(=O)c1cc(-c2cc(-c3cc(NC(=O)c4ccnc(C(C)(C)F)c4)ccc3C)nc(C)n2)ccn1` [Example 428], the IC50 is 100 to 500 nM with H2405 cells, 1000 to 10000 nM in assay [1], 100 to 500 nM in assay [2] and 100 to 500 nM in the assay on WM3928 cells.

As for `COC(=O)Nc1cc(-c2cncc(-c3cc(NC(=O)c4ccnc(C(C)(C)F)c4)ccc3C)c2)ccn1` [Example 435], the IC50 with H2405 cells was ≤ 100 nM; in assay [1] it was 1000 to 10000 nM; in assay [2] it was ≤ 100 nM; in the assay on WM3928 cells, ≤ 100 nM.

For the molecule `COC(=O)Nc1cc(-c2cccc(-c3cc(NC(=O)c4ccnc(C(C)(C)F)c4)cnc3C)c2)ncn1` [Example 404], the IC50 lay within 1000 to 10000 nM in the assay with H2405 cells, 1000 to 10000 nM in assay [1], 100 to 500 nM in assay [2] and 100 to 500 nM with WM3928 cells.

For the molecule `Cc1ccc(NC(=O)c2cnn(C3CC3)c2)cc1-c1cncc(-c2cc(NC(=O)C3CC3)ncn2)c1` [Example 430], the IC50 is 100 to 500 nM in the assay on H2405 cells, 500 to 1000 nM in assay [1], ≤ 100 nM in assay [2] and ≤ 100 nM in the assay with WM3928 cells.

Take `CNC(=O)c1cc(-c2cc(-c3cc(NC(=O)c4ccnc(C(C)(C)C#N)c4)ccc3OC)ccn2)ccn1` [Example 437]: the IC50 in the assay with H2405 cells was 100 to 500 nM; in assay [1], 1000 to 10000 nM; in assay [2], 100 to 500 nM; in the assay with WM3928 cells it was 500 to 1000 nM.

For the molecule `Cc1ccc(NC(=O)c2ccnc(C(C)(C)F)c2)cc1-c1cncc(-c2ccnc(NC(=O)C3CC3)c2)c1` [Example 417], the IC50 with H2405 cells was ≤ 100 nM; in assay [1] it was 100 to 500 nM; in assay [2] it was ≤ 100 nM; with WM3928 cells it was ≤ 100 nM.

Regarding `COC(=O)Nc1cc(-c2cncc(-c3cc(NC(=O)c4ccnc(C(C)(C)C#N)c4)ccc3C)c2)ncn1` [Example 414], the IC50 in the assay with H2405 cells was ≤ 100 nM; in assay [1], 1000 to 10000 nM; in assay [2], ≤ 100 nM; with WM3928 cells, ≤ 100 nM.

In the case of `Cc1ccc(NC(=O)c2ccnc(C(C)C)c2)cc1-c1cncc(-c2cc(NC(=O)C3CC3)ncn2)c1` [Example 434], the IC50 is 100 to 500 nM in assay [1], ≤ 100 nM in assay [2] and ≤ 100 nM in the assay on WM3928 cells.

As for `Cc1ccc(NC(=O)c2cn(C(C)C)nn2)cc1-c1cncc(-c2cc(NC(=O)C3CC3)ncn2)c1` [Example 412], the IC50 with H2405 cells is ≤ 100 nM; in assay [1], 100 to 500 nM; in assay [2], ≤ 100 nM; in the assay on WM3928 cells it was ≤ 100 nM.

Take `Cc1ccc(NC(=O)c2cc(C(C)(C)C)on2)cc1-c1cncc(-c2cc(NC(=O)C3CC3)ncn2)c1` [Example 431]: the IC50 is ≤ 100 nM in the assay on H2405 cells, 100 to 500 nM in assay [1], ≤ 100 nM in assay [2] and ≤ 100 nM with WM3928 cells.

Consider `Cc1ncc(NC(=O)c2ccnc(C(C)(C)C#N)c2)cc1-c1cccc(-c2cnc3ccccn23)c1` [Example 407], for which the IC50 in the assay on H2405 cells lay in the range of 500 to 1000 nM; in assay [1], 1000 to 10000 nM; in assay [2], 500 to 1000 nM; in the assay on WM3928 cells, 1000 to 10000 nM.

Regarding `Cc1ccc(NC(=O)c2cc(C3CC3)n(C)n2)cc1-c1nccc(-c2ccnc(NC(=O)C3CC3)c2)n1` [Example 436], the IC50 is ≤ 100 nM in the assay on H2405 cells, 500 to 1000 nM in assay [1], ≤ 100 nM in assay [2] and ≤ 100 nM in the assay on WM3928 cells.

For `COC(=O)Nc1cc(-c2cnnc(-c3cc(NC(=O)c4cn(C(C)C)nn4)ccc3C)c2)ccn1` [Example 409], the IC50 is 1000 to 10000 nM in the assay on H2405 cells, 1000 to 10000 nM in assay [1], 100 to 500 nM in assay [2] and 1000 to 10000 nM in the assay with WM3928 cells.

As for `CNC(=O)c1cc(-c2cncc(-c3cc(NC(=O)c4ccnc(C(C)(C)F)c4)ccc3C)c2)ccn1` [Example 413], the IC50 is ≤ 100 nM with H2405 cells, 1000 to 10000 nM in assay [1], ≤ 100 nM in assay [2] and ≤ 100 nM in the assay with WM3928 cells.

On to `Cc1ccc(NC(=O)c2ccnc(C(C)(C)C#N)c2)cc1-c1cncc(-c2cc(NC(=O)C(C)C)ncn2)c1` [Example 420], for which the IC50 in the assay with H2405 cells is ≤ 100 nM; in assay [1], 1000 to 10000 nM; in assay [2], ≤ 100 nM; in the assay with WM3928 cells, ≤ 100 nM.

In the case of `Cc1ccc(NC(=O)c2ccnc(C(C)(C)F)c2)cc1-c1cncc(-c2ccnc3c2CC(=O)N3)c1` [Example 432], the values for the IC50 (in assay [1]; in assay [2]; in the assay with WM3928 cells) were 1000 to 10000 nM, ≤ 100 nM and 100 to 500 nM, respectively.
